Patent US20220257595A1, “MACITENTAN FOR USE IN TREATING PORTOPULMONARY HYPERTENSION” (ACTELION PHARMACEUTICALS LTD, priority 2019, published 2022)

Experiments:
[1] = system: patients with PoPH; assay: PORTICO: WHO functional class; type: in vivo, human
Method: (iii) WHO functional class: WHO FC was evaluated at Screening, Baseline (Visit 2/Randomization), and then every visit until EOT-DB or EOT-OL, whichever came last.
Handling of missing data: For change from baseline to Weeks 4, 8 and 12 in 6MWD and WHO FC, the last available value (including baseline) was carried forward unless the patient died before, or on Day 42, 70, 98 (the upper limit treatment days of Weeks 4, 8 and 12 windows, respectively), in which case the following rules considering worst case were used to replace all the missing values from the week after death up to Week 12: • For 6MWD, worst fixed value was set to 0, • For WHO FC, worst fixed value was set to class IV, • For change from baseline to Week 12 in NT-proBNP, the same imputation rule as for PVR was applied as described herein.
Statistical analysis: The change from baseline to Week 12 in mRAP, mPAP, cardiac index, TPR and SVO2 were analyzed on the FAS (with imputation) using an ANCOVA with factors for treatment group, background PAH-specific therapy at baseline (Yes/No as per IXRS, randomization stratification factor), region (Europe/North America/Latin America as per IXRS, randomization stratification factor) and a covariate for baseline corresponding variable. Other RHC variables are listed only. WHO FC is summarized on the FAS (with imputation) by time point and treatment group using frequency tables. Changes from baseline in WHO FC were dichotomized as worsening (i.e., change >0) versus no change or improvement (i.e., change ≤0). Worsening was analyzed using a logistic regression model (exact) with covariates for treatment group, background PAH-specific therapy at baseline (Yes/No as per IXRS, randomization stratification factor) and region (Europe/North America/Latin America as per IXRS, randomization stratification factor). 6MWD is summarized on the FAS (with imputation) by time point and treatment group using descriptive statistics. Change from baseline to each time point is summarized similarly. Change from baseline in 6MWD (up to Week 12) was analyzed using a mixed-effect model repeated measure (MMRM) with factors for treatment group, time point, treatment by time interaction, background PAH-specific therapy at baseline (Yes/No as per IXRS, randomization stratification factor) and region (Europe/North America/Latin America as per IXRS, randomization stratification factor), and covariates for baseline 6MWD and WHO FC. An unstructured covariance matrix was used to account for the correlation between repeated measurements from the same patient. NT-proBNP is summarized on the FAS (with imputation) by time point and treatment group using descriptive statistics as well as geometric means and CVs. The ratio of Week 12 to baseline NT-proBNP is summarized similarly. The ratio versus baseline in NT-proBNP was log-transformed and analyzed using an ANCOVA with covariates for treatment group, background PAH-specific therapy at baseline (Yes/No as per IXRS, randomization stratification factor), region (Europe/North America/Latin America as per IXRS, randomization stratification factor) and baseline log NT-proBNP.
Macitentan treatment period: Changes from macitentan baseline to each time point in WHO FC, 6MWD, NT-pro BNP and Borg dyspnea index (related to the macitentan treatment period) are summarized for the MTS using descriptive statistics.

[2] = system: patients with PoPH; assay: PORTICO: hepatic venous pressure gradient by hepatic vein catheterization; type: in vivo, human; conditions: macitentan group n=15, no TIPS
Method: (ii) Hemodynamic measurements—hepatic vein catheterization: HVPG, the difference between portal pressure and hepatic pressure, was measured by HVC at Baseline (Visit 1/Screening) and Week 12, or at permanent discontinuation of DB study treatment if prior to Week 12 (at the investigator's discretion). Where possible, HVPG was measured at the same time as RHC. The second measurement during the study was required to be performed within 1 week prior to EOT-DB if it was not possible to perform the HVC on the same day as the RHC. HVPG measurements were performed after at least 4 hours of fasting, at rest, in the supine position, under local anesthesia and mild sedation. A catheter introducer was placed into the right jugular vein (or femoral) using the Seldinger technique. It was used to advance a balloon-tipped catheter into the main right hepatic vein for repeated measurements of wedged (occluded) and free hepatic venous pressures. Intravascular pressures were measured using highly sensitive pressure transducers, calibrated before each measurement. HVPG was calculated as the difference between wedged and free hepatic venous pressures. […] The mean of these two measurements was considered final. […]

[3] = Phase 1, chronic hepatic impairment, varying grades of liver disease severity; cited from earlier work
[4] = system: endothelin A and B receptors; conditions: nonclinical in vivo studies; cited from earlier work

## CCCNS(=O)(=O)Nc1ncnc(OCCOc2ncc(Br)cn2)c1-c1ccc(Br)cc1 [macitentan, N-[5-(4-Bromophenyl)-6-[2-[(5-bromo-2-pyrimidinyl)oxy]ethoxy]-4-pyrimidinyl]-N′-propylsulfamide]
[1]; FAS with imputation, N=43
  WHO FC Class I at Week 12, total: 3 (7.0) n (%)
  WHO FC Class II at Week 12, total: 27 (62.8) n (%)
  WHO FC Class III at Week 12, total: 13 (30.2) n (%)
  WHO FC Class IV at Week 12, total: 0 n (%)
  WHO FC Improved, baseline to Week 12: 9 (20.9) n (%)
  WHO FC Not Worsened, baseline to Week 12: 37 (86.0) n (%)
  WHO FC Unchanged, baseline to Week 12: 28 (65.1) n (%)
  WHO FC Worsened, baseline to Week 12: 6 (14.0) n (%)
  WHO FC shift: baseline Class I to Week 12 Class I: 1 (2.3) n (%)
  WHO FC shift: baseline Class I to Week 12 Class II: 0 n (%)
  WHO FC shift: baseline Class I to Week 12 Class III: 0 n (%)
  WHO FC shift: baseline Class I to Week 12 Class IV: 0 n (%)
  WHO FC shift: baseline Class II to Week 12 Class I: 1 (2.3) n (%)
  WHO FC shift: baseline Class II to Week 12 Class II: 20 (46.5) n (%)
  WHO FC shift: baseline Class II to Week 12 Class III: 6 (14.0) n (%)
  WHO FC shift: baseline Class II to Week 12 Class IV: 0 n (%)
  WHO FC shift: baseline Class III to Week 12 Class I: 1 (2.3) n (%)
  WHO FC shift: baseline Class III to Week 12 Class II: 7 (16.3) n (%)
  WHO FC shift: baseline Class III to Week 12 Class III: 7 (16.3) n (%)
  WHO FC shift: baseline Class III to Week 12 Class IV: 0 n (%)
[1]; FAS, macitentan group
  Patients with no change in WHO FC at Week 12: 65.1%
[1]; FAS, macitentan group, 6 patients (4 imputed)
  Patients with worsening in WHO FC at Week 12: 14.0%
[1]; FAS, macitentan group, 9 patients
  Patients with improvement in WHO FC at Week 12: 20.9%
[1]; MTS without imputation, macitentan in both periods, 2/34
  Patients with worsening in WHO FC at Week 24: 5.9%
[1]; MTS without imputation, macitentan in both periods, 21/34
  Patients with no change in WHO FC at Week 24: 61.8%
[1]; MTS without imputation, vs macitentan baseline, 3/35
  Patients with worsening in WHO FC at Week 12 after macitentan initiation in OL period: 8.6%
[1]; MTS without imputation, vs macitentan baseline, 24/35
  Patients with no change in WHO FC at Week 12 after macitentan initiation in OL period: 68.6%
[2]
  HVPG (central review) mean change from baseline at Week 12: −0.5 mmHg
[3]
  Change in PK of macitentan and its metabolites in hepatic impairment: no clinically relevant change
[4]
  Potency compared with bosentan: higher potency than bosentan
